These results are taken from US4400199A, “Thiolcarbamate compounds and their use as herbicides” (priority 1981, dated 1983).

A short description of series [1]: Experiment 4: subacute toxicity to fish. The series is classed as in vivo, 2-year-old carps. The note with it: carp, water; 0.2 ppm; 3 weeks; read-out: Survival rate after 3 weeks. How it is done:
(§1) With respect to the compounds according to the present invention and the comparative compounds listed in Table 4, there were conducted tests on subacute toxicity to 2-year-old carps having an average weight of 20 g.
(§2) Ten 2-year-old carps were released in each of 25-liter water tanks equipped with an air-blowing apparatus and acclimatized to the surroundings while feeding for 10 days. Water in each of the water tanks was continuously replaced with fresh water so that the residence time of water in the water tanks is 6 hours. Each test compound was added to a predetermined quantity of supply water to prepare a 0.2 ppm aqueous solution of each compound, and each of the aqueous solutions was continuously added to the water in the tank. After three weeks, the hematocrit values of all the survival carps were determined. The hematocrit value used herein is intended to mean a volume percentage of erythrocyte contained in the blood.

The subject of a further series is carps. Put plainly: Experiment 4: subacute toxicity to fish. The series is classed as in vivo, 2-year-old carps. The note with it: 0.2 ppm; 3 weeks. How it is done: as §1, §2
The next series relates to barnyard grass. Put plainly: Experiment 2: herbicidal effects against barnyard grass (pot test, granules). The series is classed as in vivo, Echinochloa crus-galli. The note with it: 2.5 leaf-stage, 25 days.
A further series concerns broad-leaf weeds. Nature of the series: Experiment 2: herbicidal effects against broad-leaf weeds (pot test, granules). The series is classed as in vivo. The note with it: 25 days.
Series [2] deals with barnyard grass (Echinochloa crus-galli). Nature of the series: Experiment 1: herbicidal effects against barnyard grass (pot test, emulsifiable concentrate). Type of series: in vivo. The note with it: 25 days.
Series [3] deals with Hotarui (Scirpus juncoides). Nature of the series: Experiment 2: herbicidal effects against Hotarui (pot test, granules). The series is classed as in vivo. The note with it: 25 days.
In series [4] the test system is Mizugayatsuri (Cyperus serotinus). Put plainly: Experiment 2: herbicidal effects against Mizugayatsuri (pot test, granules). Type of series: in vivo. The note with it: 25 days.
The mark [5] stands for this setting: 1.5 leaf-stage of barnyard grass, 150 g/10a.
[6] abbreviates: 1.5 leaf-stage of barnyard grass, 300 g/10a.
Setting [7] is: 1.5 leaf-stage of barnyard grass, 600 g/10a.
The mark [8] stands for this setting: 3 leaf-stage of barnyard grass, 150 g/10a.
Where [9] appears, read: 3 leaf-stage of barnyard grass, 300 g/10a.
The mark [10] stands for this setting: 3 leaf-stage of barnyard grass, 600 g/10a.

As for `CC1CCCCN1C(=O)SCCCCCCl` (stereo not drawn) [Compound 2, S-(5-chloropentyl)-(2-methyl)-piperidine-1-carbothioate], the survival at 504 h in series [1] worked out at 100%. In addition, in the series on carps, the “Average Hematocrit Value of survival fish” value turned out to be 30%. Moreover, the “herbicidal activity (barnyard grass)” value (with barnyard grass (150 g/10a.); in the series with barnyard grass (300 g/10a.); in the series on barnyard grass (600 g/10a.); in series [2] (setting [5]); in series [2] (setting [6]); in series [2] (setting [7])) was 5 (more than 90%) throughout. For the same compound, the “herbicidal activity (barnyard grass)” value in series [2] (setting [8]), in series [2] (setting [9]) and in series [2] (setting [10]) was 5 (more than 90%) throughout. In addition, the “Herbicidal activity broad-leaf weeds” value with broad-leaf weeds (150 g/10a.), in the series on broad-leaf weeds (300 g/10a.) and in the series on broad-leaf weeds (600 g/10a.) was 5 (more than 90%) throughout. The “Herbicidal activity Hotarui (Scirpus juncoides)” value (“Herbicidal activity Hotarui” for short) in series [3] (150 g/10a.) was 3 (50 to 69%); in series [3] (300 g/10a.), 4 (70 to 89%); in series [3] (600 g/10a.), 5 (more than 90%). Moreover, the “Herbicidal activity Mizugayatsuri (Cyperus serotinus)” value (from here on “Herbicidal activity Mizugayatsuri”) is listed as 3 (50 to 69%) in series [4] (150 g/10a.), 4 (70 to 89%) in series [4] (300 g/10a.) and 5 (more than 90%) in series [4] (600 g/10a.).

Turning to `CC1CCCCN1C(=O)SCCCCCCCl` (stereo not drawn) [Compound 3, S-(6-chlorohexyl)-(2-methyl)-piperidine-1-carbothioate], the “herbicidal activity (barnyard grass)” value (in the series with barnyard grass (150 g/10a.); in the series on barnyard grass (300 g/10a.); with barnyard grass (600 g/10a.); in series [2] (setting [5]); in series [2] (setting [6]); in series [2] (setting [7])) was 5 (more than 90%) throughout. For the same compound, the figures for the “herbicidal activity (barnyard grass)” value in series [2] (setting [8]), in series [2] (setting [9]) and in series [2] (setting [10]) were 4 (70 to 89%), 5 (more than 90%) and 5 (more than 90%), respectively. The “Herbicidal activity broad-leaf weeds” value with broad-leaf weeds (150 g/10a.) was 4 (70 to 89%); with broad-leaf weeds (300 g/10a.), 5 (more than 90%); in the series with broad-leaf weeds (600 g/10a.), 5 (more than 90%). Besides, the “Herbicidal activity Hotarui” value is 3 (50 to 69%) in series [3] (150 g/10a.), 4 (70 to 89%) in series [3] (300 g/10a.) and 5 (more than 90%) in series [3] (600 g/10a.). Further, the figures for the “Herbicidal activity Mizugayatsuri” value in series [4] (150 g/10a.), in series [4] (300 g/10a.) and in series [4] (600 g/10a.) were 4 (70 to 89%), 4 (70 to 89%) and 5 (more than 90%), respectively.

For `CC1CCCCN1C(=O)SCCCCCCCCCl` (stereo not drawn) [Compound 4, S-(8-chlorooctyl)-(2-methyl)-piperidine-1-carbothioate], the “herbicidal activity (barnyard grass)” value is on record as 4 (70 to 89%) in the series with barnyard grass (150 g/10a.); 5 (more than 90%) with barnyard grass (300 g/10a.); 5 (more than 90%) in the series with barnyard grass (600 g/10a.); 5 (more than 90%) in series [2] (setting [5]); 5 (more than 90%) in series [2] (setting [6]); 5 (more than 90%) in series [2] (setting [7]). In addition, the “herbicidal activity (barnyard grass)” value in series [2] (setting [8]) was 4 (70 to 89%); in series [2] (setting [9]), 5 (more than 90%); in series [2] (setting [10]), 5 (more than 90%). In addition, the “Herbicidal activity broad-leaf weeds” value is 3 (50 to 69%) in the series on broad-leaf weeds (150 g/10a.), 4 (70 to 89%) in the series on broad-leaf weeds (300 g/10a.) and 5 (more than 90%) in the series with broad-leaf weeds (600 g/10a.). In addition, the “Herbicidal activity Hotarui” value in series [3] (150 g/10a.) is listed as 2 (30 to 49%); in series [3] (300 g/10a.), 4 (70 to 89%); in series [3] (600 g/10a.), 5 (more than 90%). Besides, the “Herbicidal activity Mizugayatsuri” value in series [4] (150 g/10a.) is 2 (30 to 49%); in series [4] (300 g/10a.), 3 (50 to 69%); in series [4] (600 g/10a.), 5 (more than 90%).

Turning to `CC1CCCCN1C(=O)SCCCCCCCCCCCl` (stereo not drawn) [Compound 5, S-(10-chlorodecyl)-(2-methyl)-piperidine-1-carbothioate], the “herbicidal activity (barnyard grass)” value with barnyard grass (300 g/10a.) is recorded as 5 (more than 90%); in the series on barnyard grass (600 g/10a.), 5 (more than 90%); in series [2] (setting [6]), 5 (more than 90%); in series [2] (setting [7]), 5 (more than 90%); in series [2] (setting [9]), 4 (70 to 89%); in series [2] (setting [10]) it was 5 (more than 90%). Moreover, the “Herbicidal activity broad-leaf weeds” value in the series with broad-leaf weeds (300 g/10a.) is 4 (70 to 89%); with broad-leaf weeds (600 g/10a.), 5 (more than 90%). In addition, the “Herbicidal activity Hotarui” value in series [3] (300 g/10a.) is listed as 4 (70 to 89%); in series [3] (600 g/10a.), 5 (more than 90%). In addition, the “Herbicidal activity Mizugayatsuri” value is reported as 3 (50 to 69%) in series [4] (300 g/10a.) and 5 (more than 90%) in series [4] (600 g/10a.).

Take `CC1CCC(C)CN(C(=O)SCCCCCCCl)C1` (stereo not drawn) [Compound 8, S-(6-chlorohexyl)-3,6-dimethyl-hexahydro-1H-azepine-1-carbothioate]: the survival at 504 h in series [1] worked out at 100%. The “Average Hematocrit Value of survival fish” value with carps was found to be 35%. The “herbicidal activity (barnyard grass)” value in series [2] (setting [5]), in series [2] (setting [6]), in series [2] (setting [7]), in series [2] (setting [8]), in series [2] (setting [9]) and in series [2] (setting [10]) was 5 (more than 90%) in each case.

`CSC(=O)N1CC(C)CCC(C)C1` (centres unmarked) [Compound 14, reference compound]: in series [2] (setting [9]), the “herbicidal activity (barnyard grass)” value was 3 (50 to 69%).

With `CCSC(=O)N1CC(C)CCC(C)C1` (centres unmarked) [Compound 15, reference compound], the “herbicidal activity (barnyard grass)” value in series [2] (setting [9]) is on record as 3 (50 to 69%).

Take `CCCSC(=O)N1CC(C)CCC(C)C1` (centres unmarked) [Compound 16, reference compound]: the “herbicidal activity (barnyard grass)” value in series [2] (setting [9]) was 3 (50 to 69%).

In the case of `CCCCSC(=O)N1CC(C)CCC(C)C1` (centres unmarked) [Compound 17, reference compound], in series [2] (setting [9]), the “herbicidal activity (barnyard grass)” value is reported as 3 (50 to 69%).

On to `CCCCCCCCCCSC(=O)N1CC(C)CCC(C)C1` (centres unmarked) [Compound 19, reference compound], for which the “herbicidal activity (barnyard grass)” value in series [2] (setting [9]) is on record as 1 (10 to 29%).

Regarding `CC1CCC(C)CN(C(=O)SCCCCCCCl)C1` (stereo not drawn) [Compound, S-(6-chlorohexyl)-3,6-dimethyl-hexahydro-1H-azepine-1-carbothioate], the “herbicidal activity (barnyard grass)” value with barnyard grass (150 g/10a.) and in the series with barnyard grass (300 g/10a.) was 5 (more than 90%) throughout. Besides, the “Herbicidal activity broad-leaf weeds” value in the series on broad-leaf weeds (150 g/10a.) is given as 3 (50 to 69%); with broad-leaf weeds (300 g/10a.), 5 (more than 90%). The entries for the “Herbicidal activity Hotarui” value in series [3] (150 g/10a.) and in series [3] (300 g/10a.) were 3 (50 to 69%) and 5 (more than 90%), respectively. Further, the “Herbicidal activity Mizugayatsuri” value is listed as 2 (30 to 49%) in series [4] (150 g/10a.) and 4 (70 to 89%) in series [4] (300 g/10a.).
